Read-outs that look alike come from different tables or passages of the source.
How the values were obtained:
[1] = Cytotoxicity (MTT) on LLC-MK2 host cells; format: cell-based; details: rhesus monkey
Description: Mammalian cells were used to evaluate the cytotoxicity of the tested compounds. […] Cells were dissociated from the monolayer by treatment with a solution containing 0.25% w/v trypsin and 0.04% EDTA.

[2] = tested on: T. cruzi amastigotes (Tulahuen C2C4-LacZ); test: Trypanocidal activity against intracellular amastigotes (CPRG, beta-galactosidase); format: cell-based, Trypanosoma cruzi; details: for Selective Index: LLC-MK2 IC50 vs T. cruzi amastigote IC50; for IC50: Trypanosoma cruzi, TULAHUEN, 120 h, in LLC-MK2 host cells
Procedure: The antiparasitic activity assays used the Tulahuen C2C4-LacZ strain of the Trypanosoma cruzi parasite, being evaluated in the amastigote forms. […] Trypomastigote forms were collected from the culture supernatant between the 5th and 10th day after infection and separated from non-adherent cells by differential centrifugation. Epimastigote evolutionary form parasites were cultivated in LIT medium (Liver Infusion Tryptose), supplemented with hemin (25 mg/L) + 10% FBS, and incubated at 28 °C, performing successive passages every 6–7 days.
Non-internalized parasites were removed by three successive washes with PBS, followed by treatment with increasing concentrations of the hybrids (0.64–100 µM) in triplicates, pre-diluted in DMEM + 2% FBS. Untreated vehicle (0.2% v/v DMSO) and blank (no added parasites) controls were included in the experiment. Increasing concentrations of Benznidazole were used as the positive control. After incubation for 5 days (120 h), 30 µL of 0.5 mM chlorophenol red substrate β-galactopyranoside (CPRG) in PBS was added with 0.9% v/v of Igepal CA-630.

A549 cells [3] = test: Antiproliferative activity (MTT) against A549 tumor cell line; format: cell-based, human; details: for IC50: read-out: A549 IC50; for Selective Index SI A549: PBMC LD50 vs A549 IC50
Procedure: (§1) Cells were treated with increasing concentrations of the hybrids in triplicates, pre-diluted in DMEM + 2% FBS, and incubated for 120 h. The toxic effect of the molecules was also evaluated on human lung cancer cell lines (A549 and H460), as well as on PBMC. […] In all experiments, untreated controls, vehicle (0.2% v/v DMSO), and blanks (no added cells) were included. […] Then, 20 µL of 3.0 mM MTT saline was added and incubated for another 1.5 h. The supernatant was removed, and the MTT formazan crystals were dissolved by adding 120 µL/well of DMSO. After incubation for 1.5 h to dissolve the MTT crystals away from light and at 37 °C, the absorbance was measured at λ = 570 nm using a plate reader.

H460 cells = test: Antiproliferative activity (MTT) against H460 tumor cell line; format: cell-based, human; details: for IC50: read-out: H460 IC50; for Selective Index SI H460: PBMC LD50 vs H460 IC50; for Fold increase in potency compared with analog 7, H460: IC50 ratio vs 7
Procedure: as §1

A549 cells [4] = test: Cell cycle analysis by PI flow cytometry; format: cell-based, human; details: A549, 72 h treatment at IC50; for Cells in G2-M phase: control approximately 20%
Procedure: The cell cycle phase was determined using a PI solution, according to a method described elsewhere. […] Cell cycle determination was performed on a FACScalibur flow cytometer (BD Biosciences, San Diego, CA, USA). Post-analysis of the cell cycle assay was performed using Summit software (version 4.3, Dako Colorado, Fort Collins, CO, USA).

[5] = Stability in PBS by HPLC-DAD; format: physicochemical; details: PBS pH 7.4, 37 °C; for Chemical stability in PBS: 24 h incubation
Procedure: The analytical conditions were as follows: Column Restek, Allure Organic Acid C18, 150 mm × 4.6 mm × 5 µm (Bellefonte, PA, USA); mobile phase, 40% water with 0.1% formic acid, 60% acetonitrile with 0.1% formic acid, 1.0 mL/min, isocratic elution; injection volume, 5 µL; detectors, PDA (200–800 nm). […] After incubation, 100 µL of reaction mixtures were added to 900 µL of HPLC mobile phase and injected.

[6] = tested on: peripheral blood mononuclear cells (PBMC); details: human, 72 h
Procedure: as §1

[7] = tested on: T. cruzi (Y strain) amastigotes; set-up: method as in PMID 27658305; details: cited from earlier work
[8] = tested on: T. cruzi epimastigotes (Y strain); set-up: method as in PMID 27658305; details: read-out: IC50 against epimastigotes (Y strain); cited from earlier work
[9] = tested on: peripheral blood mononuclear cells (PBMC); test: Cytotoxicity (MTT) on peripheral blood mononuclear cells
Procedure: as §1

A549 cells [10] = test: Cell death analysis by Annexin V/PI flow cytometry; format: cell-based, human; details: A549, 48 h at IC50; control 2.38%
Procedure: Cell death analysis was performed by using an Annexin V/PI double staining kit (PharMingen, San Diego, CA, USA) as previously described. For the assay, the cells were plated at a density of 1 × 10^6 cells/well in six-well plates, 2 mL/well. […] After incubating for 15 min at room temperature in the dark, 400 µL of binding buffer was added. The two-color flow cytometry analysis was performed on a FACSCalibur device (Becton Dickinson, Franklin Lakes, NJ, USA). Post-analysis was performed in Summit software (version 4.3, Dako Colorado, Fort Collins, CO, USA).

[11] = Homo sapiens, NCI-H460, 72 h, MTT

| SMILES | IC50 at 120 h [1] [µM] | Selective Index [2] | IC50 [2] [µM] | PBMC LD50 [6] [µM] | IC50 (A549 cells [3]; Homo sapiens, A549, 72 h, MTT) [µM] | Selective Index SI A549 (A549 cells [3]) | IC50 (H460 cells; [11]) [µM] | Selective Index SI H460 (H460 cells) | further results |
| --- | --- | --- | --- | --- | --- | --- | --- | --- | --- |
| O=C(Cn1ccnc1[N+](=O)[O-])NCc1ccccc1 [Benznidazole, reference compound] | > 200 | > 133 | 1.5 ± 0.33 | – | – | – | – | – | – |
| N.N.[Cl][Pt][Cl] [Cisplatin, reference compound] | – | – | – | – | – | – | – | – | IC50 (A549 cells [3]; 72 h, MTT): 6.05 ± 0.58 µM; IC50 (H460 cells; 72 h, MTT): 2.96 ± 0.44 µM |
| COc1cc(/C=C/C(=O)CC(=O)/C=C/c2ccc(O)c(OC)c2)ccc1O [Compound 1, (1E,6E)-1,7-Bis(4-hydroxy-3-methoxyphenyl)hepta-1,6-dien-3,5-dione, reference compound] | 25.7 ± 6.05 | – | 17.8 ± 6.88 | 146.5 ± 12.08 | – | – | – | – | Cells in G2-M phase (A549 cells [4]): 80%; IC50 (A549 cells [3]; Homo sapiens, A549, 72 h): 56.5 ± 3.75 µM; IC50 (H460 cells; Homo sapiens, NCI-H460, 72 h): 37.9 ± 8.81 µM; Fraction decomposed in PBS [5]: approximately 70%; Amastigote release from infected mouse macrophages [7]: inhibited amastigote release; IC50 [8]: 10.1 µM |
| O=C(/C=C/c1ccc(O)cc1)CC(=O)/C=C/c1ccc(O)cc1 [Compound 3, (1E,6E)-1,7-Bis(4-hydroxyphenyl)hepta-1,6-diene-3,5-dione, reference compound] | 19.7 ± 0.87 | 1.11 | 17.6 ± 0.26 | 134.1 ± 13.30 | 46.5 ± 3.45 | 2.88 | 27.1 ± 4.35 | – | – |
| COc1cc(/C=C/C(=O)/C=C/c2ccc(O)c(OC)c2)ccc1O [Compound 4, (1E,4E)-1,5-Bis(4-hydroxy-3-methoxyphenyl)penta-1,4-dien-3-one] | < 6.4 | – | 3.92 ± 0.33 | – | – | – | – | > 19.60 | IC50 (A549 cells [3]; Homo sapiens, A549, 72 h): 18.1 ± 4.72 µM; IC50 (H460 cells; Homo sapiens, NCI-H460, 72 h): 10.2 ± 3.76 µM; Chemical stability in PBS [5]: remained untouched; PBMC LD50 ([9]; 72 h, MTT): >200 µM; Toxic effects against peripheral blood mononuclear cells ([9]; higher concentration tested): did not present toxic effects |
| COc1cc(/C=C/C(=O)c2ccc(O)c(OC)c2)ccc1O [Compound 5, (E)-1,3-Bis(4-hydroxy-3-methoxyphenyl)prop-2-en-1-one] | – | 0.55 | 15.6 ± 4.08 | 119.1 ± 16.35 | 58 ± 6.75 | 2.05 | 1.74 ± 0.28 | 68.44 | IC50 at 120 h ([1]; 120 h, MTT, read-out: LLC-MK2 (Host Cells) 120 h IC50): 8.72 ± 2.42 µM |
| COc1cc(/C=C2\CC/C(=C\c3ccc(O)c(OC)c3)C2=O)ccc1O [Compound 6, 2,5-Bis((E)-4-hydroxy-3-methoxybenzylidene)cyclopentan-1-one] | < 6.4 | – | 8.35 ± 2.35 | 141.1 ± 18.53 | 71.3 ± 1.53 | 1.97 | 36.1 ± 7.14 | 3.90 | – |
| COc1cc(/C=C2\CCC/C(=C\c3ccc(O)c(OC)c3)C2=O)ccc1O [Compound 7, 2,6-Bis((E)-4-hydroxy-3-methoxybenzylidene)cyclohexan-1-one] | < 6.4 | – | 4.91 ± 0.4 | >200 | 76.2 ± 9.49 | – | 42.6 ± 3.94 | – | – |
| COc1cc(/C=C2\COC/C(=C\c3ccc(O)c(OC)c3)C2=O)ccc1O [Compound 8, (3E,5E)-3,5-Bis(4-hydroxy-3-methoxybenzylidene)tetrahydro-4H-pyran-4-one] | 20.6 ± 4.65 | 1.60 | 12.8 ± 5.17 | 131.8 ± 14.52 | 8.1 ± 1.27 | 16.27 | 1.46 ± 0.28 | – | Fold increase in potency compared with parent derivative 7, A549 (A549 cells [3]; IC50 ratio vs 7): ~10 fold; Fold increase in potency compared with analog 7, H460 (H460 cells): ~30 fold; Chemical stability in PBS [5]: remained untouched |
| COc1cc(/C=C2\CN(C)C/C(=C\c3ccc(O)c(OC)c3)C2=O)ccc1O [Compound 9, (3E,5E)-3,5-Bis(4-hydroxy-3-methoxybenzylidene)-1-methylpiperidin-4-one] | 28.4 ± 3.8 | 2.95 | 9.6 ± 1.61 | 73.25 ± 5.87 | 61.1 ± 6.2 | 1.19 | 9.89 ± 3.03 | 7.40 | Fold increase in potency compared with analog 7, H460 (H460 cells): 4.3 fold |
| COc1cc(/C=C2\CSC/C(=C\c3ccc(O)c(OC)c3)C2=O)ccc1O [Compound 10, (3Z,5Z)-3,5-Bis(4-hydroxy-3-methoxybenzylidene)dihydro-2H-thiopyran-4(3H)-one] | 13 ± 2.36 | 2.20 | 5.87 ± 2.89 | 186.4 ± 35.15 | 37 ± 8.28 | 5.04 | 12.8 ± 3.94 | 14.56 | – |
| COc1cc(/C=C2\C[S+]([O-])C/C(=C\c3ccc(O)c(OC)c3)C2=O)ccc1O (stereo not shown) [Compound 11, (3Z,5Z)-3,5-Bis(4-hydroxy-3-methoxybenzylidene)dihydro-2H-thiopyran-4(3H)-one 1-oxide] | 28.5 ± 5.17 | 1.70 | 16.7 ± 4.67 | >200 | 7.74 ± 1.65 | – | 1.02 ± 0.29 | > 196.07 | – |
| COc1cc(/C=C2\CS(=O)(=O)C/C(=C\c3ccc(O)c(OC)c3)C2=O)ccc1O [Compound 12, (3Z,5Z)-3,5-Bis(4-hydroxy-3-methoxybenzylidene)dihydro-2H-thiopyran-4(3H)-one 1,1-dioxide] | 11.5 ± 3.71 | 1.56 | 7.33 ± 0.43 | 173.0 ± 37.4 | 5.89 ± 2.81 | 29.37 | 0.27 ± 0.2 | 640.74 | Cells in sub-G0 phase (A549 cells [4]): 30%; Cells in G2-M phase (A549 cells [4]): 60%; Double-positive cells for annexin and PI (late apoptosis) (A549 cells [10]): 14.98% |
